Experimental data taken from US9669016B2, “Antiparasitic effect of Bis[3,5-Bis(Benzylidene)-4-Oxo-1-Piperidinyl]amide Derivatives” (priority 2014, dated 2017).
Like-named read-outs stand apart in the source and are kept apart here.

Experiments:
[1] = tested on: LLC-MK2 cells; experiment: Viability assay (Alamar Blue) on LLC-MK2 cells; format: cell-based, Rhesus monkey; settings: Macaca mulatta, read-out: Mammalian cells IC50 ± SD, LLC-MK2
Method: Rhesus monkey kidney epithelial cell LLC-MK2 (American Type Culture Collection-ATCC, Manassas, Va. # CCL-7), Hs-27 human fibroblasts (American Type Culture Collection-ATCC, Manassas, Va.), RAW 264.7 murine macrophages (American Type Culture Collection-ATCC, Manassas, Va.) U2-09 human osteoblasts (American Type Culture Collection-ATCC, Manassas, Va. # HTB-99) (American Type Culture Collection-ATCC, Manassas, Va.) cells were cultured in Dulbecco's Modified Eagle's Medium (DMEM), supplemented with 10% inactivated FBS, along with 1% of 10,000 units/ml penicillin and 10 mg/ml streptomycin in 0.9% sodium chloride. Intraperitoneal BALB/c mice macrophages were obtained and cultured in DMEM high-glucose, +L-glu, supplemented with 10% FBS (inactivated). The procedure was performed minimizing the distress and pain for the animals following the NIH guidance and animal protocol approved by UTEP's Institutional Animal Care and Use Committee (IACUC).
(§1) Viability assay on mammalian cells and T. cruzi epimastigotes. The cytotoxicity and anti-trypanosomal activity of the NC compounds was tested in human Hs27 fibroblasts (ATCC CRL-1634), LLC-MK2 cells (ATCC CCL-7), RAW 264.7 murine macrophages (ATCC TIB71) (American Type Culture Collection-ATCC, Manassa, Va.), mice intraperitoneal macrophages and in epimastigote forms of T. cruzi Y strain using Alamar Blue assay (Invitrogen—Life Technology, Grand Island, N.Y.). The experiments were performed as described using a range of concentration of 500 μM to 1 nM.
The statistical significance (p-value) of the compound's cytotoxicity was calculated using the General Linear Mixed Model Analysis. This analysis was used to test the linear effect of the logarithm of dose on the logit transformation of the percent survival. The IC50 was obtained as the exponent of the negative ratio of the y-intercept and the slope of the fitted regression line (SAS Software, Version 9.2). […] All experiments had statistical significance determined at p≦0.05(*), p≦0.01(**), and p≦0.001(***).

[2] = tested on: Leishmania major promastigotes; experiment: Luciferase survival assay on L. major promastigotes; format: cell-based
Method: Evaluation of the NC library activity against Leishmania major. The NC library (136 compounds) was screened using firefly luciferase-expressing L. major promastigotes referred to as Lmj-FV1-LUC-TK (L. major strain Friedlin (MHOM/JL/80/Friedlin) clone V1) engineered to express luciferase following integration of the construct pIR1SAT-LUC(a)-TK(b) (strain B5113) in the rRNA locus (S. M. Hickerson and S. M. Beverley, unpublished data). Enones (stock solutions in DMSO) were diluted (1 nM to 500 μM, in a final 1% DMSO) and added (1 μl per well) to 96-well microplates using an Eppendorf epMotion 5070 automated pipetting system. Promastigotes (10^6/well) were added, and parasite survival was assessed by luciferase activity with the substrate 5′-fluoroluciferin (ONE-Glo Luciferase Assay System, Promega) after 96-h incubation at 28° C., using a luminometer (Luminoskan, Thermo). The bioluminescent intensity was a direct measure of the survival of parasites. This was determined by comparing bioluminescent intensity of L. major parasites live/dead with MTT assay and cell counting. The primary compound screens were performed as single wells.

[3] = tested on: T. cruzi intracellular amastigotes; experiment: High-content imaging infectivity assay, T. cruzi amastigote-infected human osteoblasts; format: cell-based, Trypanosoma cruzi; settings: for IC50: Trypanosoma cruzi, Osteoblast; for parasite burden / percentage of infected cells, T. cruzi infected mammalian cells: human osteoblasts, 48 h
Method: Human osteoblasts were infected with T. cruzi trypomastigotes and were treated with each compound at multiple concentrations for 48 hours.
(§2) In vitro evaluation of the NC drug library on infectivity experiments by high-content imaging assay. Mice intraperitoneal macrophages and human osteoblasts were placed in a microplate and infected with the amastigote forms of L. major strain Friedlin clone V1 and T. cruzi Y strain respectably, followed by treatment with NC lead compounds (as shown in Table 1). Briefly, Image acquisition and analyses of the plates were carried out using the BD Pathway 855 high-resolution fluorescence bioimager system (BD Biosciences). Filter sets appropriate for the excitation and emission spectra of Draq5 were utilized. Images from […] (3×3 montage) were acquired per well with a 20× objective. To perform the host cell segmentation and counting of parasites, the BD AttoVision™ v1.6.2 Sub Object analysis was used. Draq5 creates a background, staining the host cell and parasite nucleus, but defining the cytoplasm as well, determining this way the amount of parasites within each mammalian cell. The host cell nucleus was excluded by size difference. Subsequently, the infection index was calculated based on the mean of these triplicate values by multiplying the percentage of infected cells and the constraints used in the HCIA assay that was of 2, 3, 5, and 8 parasites per cell.

[4] = tested on: L. major intracellular amastigotes; experiment: High-content imaging infectivity assay, L. major amastigote-infected macrophages; format: cell-based, Leishmania major; settings: for most effective concentration against L. major intracellular amastigotes / IC50: 48 h treatment; for IC50: Leishmania major, Peritoneal macrophage, in Mus musculus, in BALB/c peritoneal macrophages; for percentage of infected macrophages vs 1% DMSO control: constraints 2, 5 and 8 or more amastigotes per macrophage; for effectiveness compared with positive control amphotericin B 5 μM: percentage of infected macrophages, NC901, NC884 at 5 μM
Method: In vitro infectivity experiments were carried out to determine the activity of compounds NC901, NC884, and NC2459 against L. major intracellular amastigotes. Intraperitoneal macrophages isolated from BALB/c mice were infected with L. major metacyclic promastigotes. After the parasites were allowed to establish infection for 48 hours, the compounds were added and incubated for an additional 48 hours. The compounds anti-leishmanial activity was evaluated using the BD Pathway Bioimager™. In the analysis several constraints were used, such as 2, 5, and 8 or more amastigotes per macrophage.
as §2

[5] = tested on: BALB/c intraperitoneal macrophages; experiment: Viability assay (Alamar Blue) on peritoneal murine macrophages; format: cell-based; settings: Mus musculus, Macrophage; read-out: Mammalian cells IC50 ± SD, Peritoneal Murine Macrophages
Method: as §1

[6] = 96 h, read-out: estimated EC50, L. major promastigotes
[7] = 96 h incubation, read-out: L. major Promastigotes EC50
[8] = in human osteoblasts, 48 h treatment, read-out: T. cruzi Intracellular Amastigotes IC50

Structure (SMILES) | IC50 [1] [nM] | EC50 [2, 6] [nM] | EC50 [2, 7] [nM] | IC50 [3, 8] [nM] | parasite burden / percentage of infected cells, T. cruzi infected mammalian cells ([3]; 3 or more amastigotes per cell) | most effective concentration against L. major intracellular amastigotes [4] [µM] | IC50 [4] [nM] | percentage of infected macrophages vs 1% DMSO control [4] | effectiveness compared with positive control amphotericin B 5 μM [4] | IC50 [5] [nM] | EC50 ([2]; after a 96 hour treatment, read-out: estimated EC50, L. major promastigotes) [nM] | IC50 ([3]; 48 hours, 3 or more amastigotes per cell, read-out: IC50, T. cruzi amastigote-infected human osteoblasts) [nM]
CN(C)CC1CCC(CN(C)C)C1=O (stereo not shown) [NC884] | 15100 ± 330 | 1120 | 1120 | 987 ± 110 | significantly reduced the parasite burden | 5 | 937 ± 130 | significant decrease in the percentage of infected cells | not as effective as the positive control amphotericin B | 7670 ± 310 | – | –
CN(C)CC1CCCC(CN(C)C)C1=O (stereo not shown) [NC901] | 8020 ± 250 | 453 | 450 | 301 ± 90 | significantly reduced the parasite burden | 5 | 1870 ± 200 | significant decrease in the percentage of infected cells | not as effective as the positive control amphotericin B | 7030 ± 420 | – | –
O=C1/C(=C/c2ccccc2)CN(C(=O)C(=O)N2C/C(=C\c3ccccc3)C(=O)/C(=C/c3ccccc3)C2)C/C1=C\c1ccccc1 [NC2459] | 2000 ± 93 | – | 20 | 227 ± 40 | significantly reduced the parasite burden | 1.25 | 625 ± 110 | significant decrease in the percentage of infected cells | significantly more effective | 5450 ± 360 | 20 | 227
